Holding throughout (test): NCI-60 cell line screen, 48 h
Experiment [1] concerns CAKI-1 renal.
In experiment [2] the test system is DMS 114 small cell lung.
For experiment [3], the system named is HOP-18 NSCLC.
The subject of experiment [4] is M14 melanoma.
In experiment [5] the test system is OVCAR-3 ovarian.
In experiment [6] the test system is SK-MEL-2 melanoma.
Experiment [7] deals with SNB-75 CNS.
The subject of experiment [8] is U251 CNS.
In experiment [9] the test system is BT-549 breast.
Experiment [10] concerns NCI/ADR-RES ovarian.

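Step 1: Grow cells in 96-well plates. Step 2: Expose to compound for 48 hours at 5 concentrations. Step 3: Interpolate endpoints linearly; if unreached, use highest concentration. The concentration for 50% growth inhibition is given as GI50. TGI: total growth inhibition.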

`COc1ccc(/C=c2\sc3nnc(CCC(=O)Nc4cccc(C(F)(F)F)c4)n3c2=O)cc1`: the TGI in experiment [1], in experiment [2], in experiment [3], in experiment [4], in [5] and in experiment [6] was more than 100 µM throughout. The TGI in experiment [7] and in experiment [8] was more than 100 µM throughout.
Turning to `CN=c1ss/c(=N\C(=S)N(C)C)n1C1CCCCC1`, the TGI in experiment [1] is more than 31.6 µM; in [2], more than 31.6 µM; in [3], more than 31.6 µM; in experiment [4] it was more than 10 µM; in [5] it was more than 31.6 µM; in experiment [6], more than 31.6 µM. The values for the TGI in [7] and in experiment [8] were more than 10 µM and more than 31.6 µM, respectively.
Turning to `CC(N)CN.CC(N)CN.[Cl-].[O]=[Os+2]=[O]` (stereo not drawn), the GI50 in experiment [1] is more than 100 µM; in experiment [2], 47.6 µM; in experiment [3] it was 25.9 µM; in experiment [4], more than 100 µM; in experiment [5], 81.4 µM; in experiment [6], more than 100 µM. The GI50 in experiment [7] and in experiment [8] was more than 100 µM throughout. In addition, the TGI in [1], in [2], in experiment [3], in experiment [4], in experiment [5] and in [6] was more than 100 µM throughout. Moreover, the TGI in [7] and in [8] was more than 100 µM in each case.
On to `COC(=O)CSc1n[nH]c(-c2ccccc2)n1`, for which the TGI in [1], in [2], in [3], in [4], in experiment [5] and in experiment [6] was more than 100 µM in each case. The TGI in [7] and in [8] was more than 100 µM in each case.
Take `O=S1c2ccccc2N=C(c2ccc3ccccc3c2)CC1c1ccccc1F` (stereo not drawn): the TGI in experiment [1], in experiment [2], in experiment [3], in [4], in experiment [5] and in experiment [6] was more than 100 µM each time. Also, the TGI is 80.8 µM in [7] and more than 100 µM in [8].
Consider `CCOC(=O)C/C(N)=C(\C#N)C(=O)OCC`, for which the TGI in [1], in experiment [2], in [3], in experiment [4], in [5] and in experiment [6] was more than 100 µM each time. Also, the TGI in experiment [7] and in experiment [8] was more than 100 µM each time.
In the case of `CC(C)(C)C1CCC(CI)(N=[N+]=[N-])CC1` (stereo not drawn), the TGI in [1], in [2], in [3], in experiment [4], in experiment [5] and in experiment [6] was more than 100 µM throughout. The TGI in experiment [7] and in experiment [8] was more than 100 µM each time.
For `CN(C)CCCNC(=O)c1cccc2nc3ccccc3nc12`, the TGI in experiment [1] is more than 78.2 µM; in experiment [2], 30 µM; in experiment [3], more than 86.9 µM; in experiment [4], more than 53.3 µM; in [5] it was more than 59.5 µM; in experiment [6], 29 µM. In addition, the TGI in experiment [7] is more than 100 µM; in [8], more than 73.4 µM.
Consider `Cc1nn2c(=O)n(-c3cccc(-n4nnc5c(-c6ccccc6)c(C)nn5c4=O)c3C)nnc2c1-c1ccccc1`, for which the TGI in experiment [1] was more than 100 µM; in experiment [2], 30.2 µM; in [3] it was more than 100 µM; in experiment [4], 29.6 µM; in [5], 44.3 µM; in experiment [6] it was 17.5 µM. The TGI in experiment [7] and in experiment [8] was more than 100 µM each time.
For the compound `COc1cc(-c2ccccc2)c(OC)cc1CCl`, the TGI in experiment [1], in [2], in experiment [3], in experiment [4], in experiment [5] and in experiment [6] was more than 100 µM throughout. For the same compound, the TGI in experiment [7] and in experiment [8] was more than 100 µM in each case.
On to `[CH3][Sn]([CH3])([CH3])[O]C(=O)C(O)c1ccccc1` (stereo not drawn), for which the GI50 in [9] is 17.9 µM; in experiment [1], 4.95 µM; in experiment [2], 5.78 µM; in experiment [3], more than 100 µM; in experiment [4] it was 1.98 µM; in experiment [10], 6.39 µM. In addition, the GI50 in experiment [5] is 5.38 µM; in experiment [6], 2.06 µM; in experiment [7], 5.61 µM; in [8], 5.84 µM. For the same compound, the TGI in experiment [9] was more than 100 µM; in experiment [1], 34.5 µM; in experiment [2] it was 31.2 µM; in experiment [3], more than 100 µM; in experiment [4], 4.15 µM; in [10], 79.5 µM. The TGI was 66.2 µM in [5], 4.51 µM in experiment [6], 54.3 µM in [7] and more than 95.3 µM in experiment [8].
Consider `COc1cc(-c2ccc(Nc3ccccc3C(=O)O)c(OC)c2)ccc1Nc1ccccc1C(=O)O`, for which the TGI in experiment [9] was 57.4 µM; in experiment [1], more than 71.1 µM; in experiment [2], more than 100 µM; in experiment [3], more than 100 µM; in [4], more than 100 µM; in experiment [10], more than 100 µM. The TGI was determined as 39.1 µM in [5], 58.6 µM in experiment [6], 91.3 µM in experiment [7] and 37.3 µM in [8].

These data come from PubChem BioAssay (NCI).
